Measured values taken from US20160338977A1, “METHODS AND KITS FOR TREATING DEPRESSION” (Janssen Pharmaceutica NV, priority 2015, published 2016).

Key:
NMDA receptor = conditions: compared with the R-enantiomer (arketamine); cited from earlier work
[1] = system: subjects with Treatment Resistant Depression (TRD); test: Clinician Administered Dissociative States Scale (CADSS); assay type: in vivo, human; conditions: post dose; intranasal
Method: The Clinician Administered Dissociative States Scale (CADSS) was measured prior to the start of each dose, at 40 minutes and at 2 hours post dose. The CADSS is used to assess treatment emergent dissociative symptoms and perceptual changes and the total score ranges from 0 to 92 with a higher score representing a more severe condition. […] See, FIG. 4.

[2] = system: subjects with Treatment Resistant Depression (TRD); test: MADRS total score, double-blind placebo-controlled intranasal induction study; assay type: in vivo, human; conditions: for Mean Differences (SE) from placebo, MADRS total score: Day 8, data from both Periods 1 and 2; for Estimated Differences from placebo, MADRS total score: best fit sigmoidal Emax model; for Least Square Mean Difference from Placebo, MADRS total score: change from baseline to Day 8, ANCOVA LOCF
Description: The subjects discussed in Examples 1 to 5 included adult men and women, 18 (or older if the minimum legal age of consent in the country in which the study is taking place is >18) to 64 years of age (inclusive), who meet diagnostic criteria for recurrent MDD or single-episode MDD, based upon clinical assessment.
This example was a 2-panel, doubly-randomized, double-blind, placebo-controlled, multicenter study. In both panels, each subject participated in a screening phase of up to 4 weeks and/or a double-blind treatment phase which includes two 1-week periods (Period 1 and Period 2).
Sixty-seven (67) subjects with Treatment Resistant Depression (TRD) were randomly assigned in a 3:1:1:1 ratio to 1 of the 4 treatment groups in Table 1.
All subjects self-administered the intranasal esketamine (28, 56, or 84 mg) or placebo on non-consecutive days. Each intranasal device contains 2 sprays and contain esketamine deliver 14 mg per spray, for a total of 28 mg per individual device (i.e., 2 sprays). […] Food was restricted for 8 hours before each administration of study drug and the drinking of fluids was restricted for at least 30 minutes before the first nasal spray.
In Period 2, 28 placebo subjects who were eligible for re-randomization at the end of Period 1 were randomly assigned to as noted in Table 1 in a 1:1:1:1 ratio. Subjects eligible for re-randomization had to have a QIDS-SR16 total score >11 at the end of Period 1. Central randomization was implemented in this study. Both randomizations were balanced using randomly permuted blocks and were stratified by study center. The randomization for Period 2 was also stratified by QIDS-SR16 score at the end of Period 1 (moderate=11-16; severe >16) Subjects who were randomly assigned to esketamine in Period 1 continued to receive esketamine in Period 2, while Period 1 placebo subjects with a QIDS-SR16 total score <11 continued with placebo in Period 2.
The Period 1 ITT analysis set consisted of all randomized subjects who received at least 1 dose of study medication during Period 1 and had both the baseline and at least one post baseline value for the primary endpoint measure, MADRS total score, within Period 1. The Period 2 ITT analysis set consisted of all Period 1 placebo subjects who were eligible for re-randomization (QIDS-SR16≧11 at end of Period 1), who actually got re-randomized into Period 2 and received at least 1 dose of study medication during Period 2, and had both the baseline and at least one post baseline MADRS total score within Period 2.
The MADRS consisted of 10 items that covered all of the core depressive symptoms (apparent sadness, reported sadness, inner tension, sleep, appetite, concentration, lassitude, interest level, pessimistic thoughts, and suicidal thoughts). Each item was scored from 0 (item is not present or is normal) to 6 (severe or continuous presence of the symptom). A total score (0 to 60) was calculated by summing the scores of all 10 items. A higher score represented a more severe condition. Sustained response (onset of clinical response) was defined as at least 50% improvement from baseline in the MADRS total score with an onset by Day 2 that was maintained to study Day 15. The primary efficacy endpoint was the change in MADRS total score from baseline to Day 8 in each period, with the analysis based on data combined across both periods. The primary efficacy analysis was performed on the intent-to-treat (ITT) analysis sets that were defined for each period, which included all randomized subjects who received at least 1 dose of study medication during that period and have both the baseline and at least one post baseline MADRS total score within that period. Significance was based on a one-sided alpha level of 0.05.
A separate ANCOVA model was performed on last observation carried forward (LOCF) data for each period. Changes from baseline in Period 1 were modeled with treatment as a factor and Period 1 baseline value as a covariate. […]

[3] = system: subjects with Treatment Resistant Depression (TRD); test: Treatment emergent adverse events (TEAE) in the subjects of Example 1
Description: The treatment emergent adverse event (TEAE) side effects for the subjects of Example were obtained. See, Table 7.

SMILES: CN[C@]1(c2ccccc2Cl)CCCCC1=O.Cl [Esketamine, (S)-2-(2-chlorophenyl)-2-(methylamino)cyclohexanone hydrochloride]
- potency or affinity for the NMDA receptor (NMDA receptor): higher potency or affinity
- time of peak of dissociative and perceptual change symptoms (CADSS) [1]: ≤ 40 min
- time to resolution of dissociative and perceptual change symptoms (CADSS) [1]: ≤ 2 h
- statistical comparison with placebo, dose response model, MADRS total score ([2]; 14 mg (model estimate, dose not studied), 90% CI included 0): not statistically different from placebo
- Mean Differences (SE) from placebo, MADRS total score ([2]; 28 mg): −4.2 (2.09)
- Estimated Differences from placebo, MADRS total score ([2]; 28 mg): −4.22
- statistical comparison with placebo, dose response model, MADRS total score ([2]; 28 mg, sigmoidal Emax model, 90% CI): statistically superior to placebo
- Mean Differences (SE) from placebo, MADRS total score ([2]; 56 mg): −6.3 (2.07)
- Estimated Differences from placebo, MADRS total score ([2]; 56 mg): −7.04
- statistical comparison with placebo, dose response model, MADRS total score ([2]; 56 mg, sigmoidal Emax model, 90% CI): statistically superior to placebo
- Mean Differences (SE) from placebo, MADRS total score ([2]; 84 mg): −9.0 (2.13)
- Estimated Differences from placebo, MADRS total score ([2]; 84 mg): −8.45
- statistical comparison with placebo, dose response model, MADRS total score ([2]; 84 mg, sigmoidal Emax model, 90% CI): statistically superior to placebo
- Least Square Mean Difference from Placebo, MADRS total score ([2]; Period 1, 28 mg intranasal): −5.0
- Least Square Mean Difference from Placebo, MADRS total score ([2]; Period 1, 56 mg intranasal): −7.6
- Least Square Mean Difference from Placebo, MADRS total score ([2]; Period 1, 84 mg intranasal): −10.5
- Least Square Mean Difference from Placebo, MADRS total score ([2]; Period 2, 28 mg intranasal): −3.1
- Least Square Mean Difference from Placebo, MADRS total score ([2]; Period 2, 56 mg intranasal): −4.4
- Least Square Mean Difference from Placebo, MADRS total score ([2]; Period 2, 84 mg intranasal): −6.9
- statistical comparison with placebo, MADRS total score ([2]; all three groups (28, 56, 84 mg), Period 1 and Period 2 combined, weighted combination test, one-sided 0.05): statistically superior to placebo
- Estimated Differences from placebo, MADRS total score ([2]; dose cell blank (14 mg per text, dose not studied)): −1.98
- Patients Experiencing on TEAE ([3]; Period 1, 28 mg intranasal): 73
- Patients Experiencing on TEAE ([3]; Period 1, 56 mg intranasal): 82
- Patients Experiencing on TEAE ([3]; Period 1, 84 mg intranasal): 83
- Patients Experiencing on TEAE ([3]; Period 2, 28 mg intranasal): 38
- Patients Experiencing on TEAE ([3]; Period 2, 56 mg intranasal): 78
- Patients Experiencing on TEAE ([3]; Period 2, 84 mg intranasal): 100
- subjects who experienced at least one TEAE ([3]; overall, esketamine in either Period 1 or Period 2): about 79%
